Blank lines part the entries; values can stand above or below the molecule they belong to.
What was measured:
BLEC monolayer = BLEC monolayer integrity: endothelial permeability to Lucifer Yellow (PeLY); format: cell-based, human
Protocol: No significant pH variation was observed after KB treatment compared to the control. The integrity of the BLEC monolayer after 48 h of treatment with KBs was evaluated using the method described by Dehouck et al. (1992). Each coculture condition was performed in triplicate. The fluorescent integrity marker LY was used at a final concentration of 50 μM in RH buffer to obtain the endothelial permeability coefficient (Pe) from the apical-to-basolateral compartment. The fluorescence of LY in each compartment was measured using the excitation/emission wavelength (432/538 nm) using a microplate reader (Synergy H1). In this calculation method, both the filter without cell permeability (PSf = insert filter + matrigel coating) and filter plus cell permeability (PSt = insert filter + matrigel coating + ECs) were taken into account, according to the formula: 1/PSe = 1/[…] PS is the permeability x surface area product (in microliters per minute) obtained by dividing the volume cleared from the donor to the receiver compartment (in μL) for 1 h. […] balance (%) was calculated from the amount of compound recovered in the donor and receiver compartment at the end of the experiment divided by the total amount added in the donor compartment at time zero. To be taken into account for Pe determination, the mass balance should be between 80% and 120%.

BLECs = assay: Immunofluorescence of tight junction proteins ZO-1 and claudin-5; format: cell-based, human; details: 48 h treatment
Protocol: After 48 h of treatments with or without KBs, BLECs were fixed and permeabilized as described in Table 1. Then, a 30-min blocking with PBS-CMF (0.2 g·L^−1 KH2PO4 , 8.0 g·L^−1 NaCl, 2.87 g·L^−1 Na2HPO4-12H2O, and 0.2 g·L^−1 KCl) with 10% (v/v) normal goat serum (NGS) was performed. Then, cells were incubated for 60 min with the primary antibody in PBS-CMF supplemented with 2% NGS at room temperature (RT), against the target protein as described in Table 1.
After three washes in PBS-CMF supplemented with 2% NGS, the cells were incubated with secondary polyclonal antibody (goat anti-rabbit Alexa 568, A11036, Molecular Probes, Eugene, OR, USA) diluted 1:500 in PBS-CMF supplemented with 2% NGS in the dark for 30 min at RT. Hoechst 33358 was used for nuclei staining. After mounting with Mowiol (Sigma-Aldrich) containing 1,4-diazabicyclo [2.2.2]octane (Sigma-Aldrich), images were taken using a Leica microscope (DMRD; Leica Microsystems, Wetzlar, Germany) and processed using ImageJ32 software.

[1] = tested on: Aβ1–40Cy5 peptide transport across BLECs; assay: Aβ1–40Cy5 peptide transport across BLECs; format: cell-based, human; details: 48 h ratio treatment; 200 nM RAP in basolateral compartment (LRP1 inhibitor) or 0.5 µM elacridar in apical compartment (P-gp inhibitor); 10 nM Aβ1–40Cy5, 30 min, 37 °C
Protocol: Forty-eight hours after KB treatments, the apical-to-basolateral and the basolateral-to-apical transport of Aβ1-40 across BLECs was investigated as previously described (Briefly, for apical-to-basolateral studies, filters were transferred to new 12-well plates containing 1.5 mL of RH-HSA 0.1% (the receiver solution) per well. In the insert corresponding to the apical compartment, 0.5 mL of RH-HSA 0.1% supplemented with 10 nM Aβ1-40Cy5 peptide was added (the donor solution). For basolateral-to-apical studies, filters were transferred to 12-well plates containing 1.5 mL of RH-HSA 0.1% supplemented with 10 nM fluorescent Aβ1-40Cy5 (the donor solution). […] At the end of the incubation period, aliquots of the donor and receiver solutions were collected, and the fluorescence compounds (Aβ1-40Cy5 and LY) were measured with a spectrofluorimeter (Synergy H1). The radioactivity of [^3H]inulin was measured using a scintillation counter (Hidex 300 SL, Hidex, Turku, Finland). […] Determination of the cumulative fraction absorbed (amount permeated), FAcum versus time, FAcum was calculated from: (2) FAcum = ∑ (C(Ri))/(C(Di)), where C(Ri) was the receiver concentration at the end of the interval i and C(Di) was the donor concentration at the beginning of interval i. […] The apical-to-basolateral and the basolateral-to-apical Papp were determined by Equation (1) for each molecule. […]

[2] = tested on: [3H]inulin transport across BLECs; assay: [3H]inulin transport across BLECs (non-specific transport marker); format: cell-based, human; details: 400 nM [3H]inulin, 30 min, 37 °C; for effect on basolateral-to-apical transport of [3H]inulin after ratio KB treatment: 48 h ratio treatment, 200 nM RAP basolateral or 0.5 µM elacridar apical
Protocol: Forty-eight hours after KB treatments, the apical-to-basolateral and the basolateral-to-apical transport of Aβ1-40 across BLECs was investigated as previously described (Briefly, for apical-to-basolateral studies, filters were transferred to new 12-well plates containing 1.5 mL of RH-HSA 0.1% (the receiver solution) per well. In the insert corresponding to the apical compartment, 0.5 mL of RH-HSA 0.1% supplemented with 10 nM Aβ1-40Cy5 peptide was added (the donor solution). For basolateral-to-apical studies, filters were transferred to 12-well plates containing 1.5 mL of RH-HSA 0.1% supplemented with 10 nM fluorescent Aβ1-40Cy5 (the donor solution). In the apical compartment, 0.5 mL of RH-HSA 0.1% (the receiver solution) was added. In parallel, the apical-to-basolateral and the basolateral-to-apical transport of 400 nM [^3H]inulin was performed in the same way as the Aβ1-40Cy5 peptide transport, thus representing a paracellular marker. The BBB integrity was checked by measuring the PeLY as described in Section 4.6. […] At the end of the incubation period, aliquots of the donor and receiver solutions were collected, and the fluorescence compounds (Aβ1-40Cy5 and LY) were measured with a spectrofluorimeter (Synergy H1). The radioactivity of [^3H]inulin was measured using a scintillation counter (Hidex 300 SL, Hidex, Turku, Finland). The permeability (apparent permeability coefficient, cm.sec^−1) of Aβ1-40-Cy5 or [^3H]-inulin was calculated according to the following equation: (1) Papp = (k.V(R))/(A.60) as previously described. k was the transport rate (min^−1) defined as the slope obtained by linear regression of the cumulative fraction absorbed (FAcum) as a function of time (min), V(R) was the volume in the receiver chamber (mL), and A was the area of the filter (cm^2). Determination of the cumulative fraction absorbed (amount permeated), FAcum versus time, FAcum was calculated from: (2) FAcum = ∑ (C(Ri))/(C(Di)), where C(Ri) was the receiver concentration at the end of the interval i and C(Di) was the donor concentration at the beginning of interval i. […]

GLUT1 = assay: Western blot of GLUT1 protein level in BLECs; format: cell-based, human; details: 48 h, 20 mM βHB or ratio, Western blot normalized to β-actin, at least three independent experiments
[3] = Stability of βHB in culture medium; format: physicochemical; details: 37 °C, 5% CO2, over 48 h, β-ketone sticks
Protocol: (§1) During this time, the glucose and βHB concentrations were measured in both the apical compartment and the basolateral compartment. The Precision-Xtra meter (Abbott Labs, Abbott Park, IL, USA) with a glucose or β-ketone sticks was used. In these assays, the glucose and βHB concentrations measured by the sticks were representative of the glucose and βHB present in the culture medium. Data were expressed in mmol·L^−1 for βHB and in g·L^−1 for glucose. The βHB concentration within BLECs was measured at 48 h following the treatment. Briefly, after medium removal, BLECs were washed twice with RH buffer and lysed with RIPA lysis buffer (Millipore Corporation, Burlington, MA, USA). The βHB concentration in the BLECs was normalized by the protein amount using Bradford assay (Bio-rad, Munich, Germany). The amount of βHB into the supernatant was assayed using β-ketone sticks, as described above. The βHB concentration was verified in the culture medium without cells at 37 °C and 5% CO2 to ensure the stability of βHB.

PICALM = assay: Western blot of PICALM protein level in BLECs; format: cell-based, human; details: 48 h, 20 mM βHB or ratio, Western blot normalized to β-actin, at least three independent experiments
PC12 cells = PC12 cells exposed in 0–20 mM βHB; cited from earlier work
Description: For a few years now, there has been an increased focus on the role of the transport of Aβ peptides across the blood–brain barrier (BBB). It appears that increasing the clearance or reducing the entry of Aβ peptides in the brain could be a promising therapeutic approach for counteracting the pathogenic processes observed in AD [52]. In recent years, there has been mounting interest in the possible utilization of a ketogenic diet (KD) or ketone body (KB) supplementations in the treatment of AD [53, 54]. On the basis of KBs’ beneficial effects on the CNS, and the lack of publ ...

MCT1 = assay: Western blot of MCT1 protein level in BLECs; format: cell-based, human; details: 48 h, 20 mM AcAc, 20 mM βHB or ratio (20 mM AcAc/20 mM βHB), Western blot normalized to β-actin, at least three independent experiments
[4] = tested on: human in vitro BBB model (BLECs); assay: βHB concentration in the compartments of the in vitro BBB model; format: in vitro ADME; details: 20 mM βHB added apically, 48 h
Protocol: as §1

LRP1 = assay: Western blot of LRP1 protein level in BLECs; format: cell-based, human; details: 48 h, 20 mM βHB or ratio, Western blot normalized to β-actin, at least three independent experiments

- endothelial lucifer yellow permeability (PeLY), control conditions (BLEC monolayer; untreated BLECs, LY 50 µM in RH buffer, apical-to-basolateral, 1 h, fluorescence 432/538 nm, mean ± SEM, three independent experiments in triplicate): 0.92 ± 0.03 × 10^−3 cm∙min^−1
Molecule: Lucifer Yellow CH dilithium salt

Molecule: OC[C@@H](O)[C@@H](O)[C@H](O)[C@H](O)CO [mannitol]
- increase in PeLY values compared to non-treated cells (BLEC monolayer; mannitol treatment of the human in vitro BBB model, p-value ≤ 0.0001): 620.6%
- staining of tight junction proteins ZO-1 and claudin-5 (intercellular contacts) (BLECs): interruption in the staining for ZO-1 and claudin-5 protein

Molecule: COc1cc2c(cc1OC)CN(CCc1ccc(NC(=O)c3cccc4c(=O)c5cccc(OC)c5[nH]c34)cc1)CC2 [elacridar, Elacridar, reference compound]
- effect on the increased basolateral-to-apical Aβ1–40Cy5 peptide transport after ratio KB treatment [1]: abolished
- effect on basolateral-to-apical transport of [3H]inulin after ratio KB treatment [2]: not affected

- stability of βHB in the culture medium [3]: stable
- βHB concentration in the BLEC [4]: ~ 0.5 mM
- βHB concentration in the apical compartment [4]: ~ 8.5 mM
- βHB concentration in the basolateral compartment [4]: ~ 6.6 mM
- initially added βHB not detectable ([4]; 37 °C, 5% CO2): 21.4%
- βHB in BLECs, % of the total amount of βHB ([4]; 37 °C, 5% CO2, RIPA lysate, β-ketone sticks, mean of three independent experiments): 2.4%
- βHB in the apical (luminal) compartment, % of the total amount of βHB ([4]; 37 °C, 5% CO2, β-ketone sticks (Precision-Xtra meter), mean of three independent experiments): 42.9%
- βHB in the basolateral (abluminal) compartment, % of the total amount of βHB ([4]; 37 °C, 5% CO2, β-ketone sticks, mean of three independent experiments): 33.3%
Molecule: CC(O)CC(=O)O (stereo not drawn) [βHB, Beta-hydroxybutyric acid]
- increase of GLUT1 protein level compared to the control (GLUT1): 51.9%
- increase of PICALM protein level compared to the control (PICALM): 39.1%
- cell viability (PC12 cells): 95%
- increase of MCT1 protein level compared to the control (MCT1): 24.9%
- upregulation of LRP1 protein level compared to the control (LRP1): 109.3%

Molecule: CC(=O)CC(=O)O [AcAc, acetoacetate]
- decrease in PeLY compared to the control (BLEC monolayer; 20 mM, 48 h treatment of BLECs, p-value ≤ 0.0001): 14.6%
- increase of MCT1 protein level compared to the control (MCT1): 35.9%
- decrease of apical-to-basolateral [3H]inulin transport ([2]; after 48 h 20 mM AcAc, scintillation counting, p-value = 0.0005): 12.9%

B1: RAP: Receptor-associated protein, human, recombinant, E.coli; standard inhibitor for LRP1 (protein, UniProt P30533 35-357, looked up)
Alpha-2-macroglobulin …: YSREKNQPKPSPKRESGEEFRMEKLNQLWEKAQRLHLPPVRLAELHADLKIQERDELAWKKLKLDGLDEDGEKEARLIRNLNVILAKYGLDGKKDARQVTSNSLSGTQEDGLDDPRLEKLWHKAKTSGKFSGEELDKLWREFLHHKEKVHEYNVLLETLSRTEEIHENVISPSDLSDIKGSVLHSRHTELKEKLRSINQGLDRLRRVSHQGYSTEAEFEEPRVIDLWDLAQSANLTDKELEAFREELKHFEAKIEKHNHYQKQLEIAHEKLRHAESVGDGERVSRSREKHALLEGRTKELGYTVKKHLQDLSGRISRARHNEL
- effect on the increased basolateral-to-apical Aβ1–40Cy5 peptide transport after ratio KB treatment [1]: abolished
- effect on basolateral-to-apical transport of [3H]inulin after ratio KB treatment [2]: not affected
